According to patent US5142051A, “N-phosphonylmethoxyalkyl derivatives of pyrimidine and purine bases and a therapeutical composition therefrom with antiviral activity” (Ceskoslovenska Akademie Ved, priority 1986, dated 1992):
Values after ≈ are worked out from the molar mass of the structure shown. Like-named read-outs stand apart in the source and are kept apart here.

Key:
[1] = system: HSV-1 (F); assay: Inhibition of virus-induced cytopathic effect in PRK-cells, HSV-1 (F); type: cell-based; settings: read-out: MIC50
[2] = system: HSV-2 (196); assay: Inhibition of virus-induced cytopathic effect in PRK-cells, HSV-2 (196); type: cell-based; settings: read-out: MIC50
[3] = system: HSV-1 (KOS); assay: Inhibition of virus-induced cytopathic effect in PRK-cells, HSV-1 (KOS); type: cell-based; settings: read-out: MIC50
[4] = system: HSV-2 (G); assay: Inhibition of virus-induced cytopathic effect in PRK-cells, HSV-2 (G); type: cell-based; settings: read-out: MIC50
[5] = system: HSV-1 (McIntyre); assay: Inhibition of virus-induced cytopathic effect in PRK-cells, HSV-1 (McIntyre); type: cell-based; settings: read-out: MIC50
[6] = system: HSV-1 TK^- (Field); assay: Inhibition of virus-induced cytopathic effect in PRK-cells, HSV-1 TK^- (Field); type: cell-based; settings: Human alphaherpesvirus 1, PRK, read-out: MIC50
[7] = system: vaccinia virus (VV); assay: microbe, parasite or virus in culture; type: cell-based; settings: Orthopoxvirus vaccinia, PRK, read-out: MIC50
[8] = Cytotoxicity: observable morphological changes in uninfected tissue culture cells; settings: rabbit, prk cells
[9] = system: HSV-2 (Lyons); assay: Inhibition of virus-induced cytopathic effect in PRK-cells, HSV-2 (Lyons); type: cell-based; settings: read-out: MIC50
[10] = system: HSV-1 TK^- (Cheng); assay: Inhibition of virus-induced cytopathic effect in PRK-cells, HSV-1 TK^- (Cheng); type: cell-based; settings: Human alphaherpesvirus 1, PRK, read-out: MIC50
[11] = system: strains or mutants devoid of thymidine kinase; settings: in words; cited from earlier work
[12] = system: TK^- mutants of herpes viruses type 1 and 2; assay: Antiviral effect against TK^- mutants of herpes viruses; type: cell-based; settings: in words
[13] = system: vaccinia virus; type: cell-based; settings: in words
[14] = system: DNA viruses; settings: background statement, in words; cited from earlier work
[15] = in words; cited from earlier work
[16] = Human alphaherpesvirus 1, HSV-1 (F), PRK-cells, 50% inhibition of cytopathic effect
[17] = Human alphaherpesvirus 2, HSV-2 (196), PRK-cells, 50% inhibition of cytopathic effect
[18] = Human alphaherpesvirus 1, HSV-1 (KOS), PRK-cells, 50% inhibition of cytopathic effect
[19] = Human alphaherpesvirus 2, HSV-2 (G), PRK-cells, 50% inhibition of cytopathic effect
[20] = Human alphaherpesvirus 1, HSV-1 (McIntyre), PRK-cells, 50% inhibition of cytopathic effect
[21] = Human alphaherpesvirus 2, HSV-2 (Lyons), PRK-cells, 50% inhibition of cytopathic effect

| SMILES | EC50 [1, 16] [µg/mL] | EC50 [2, 17] [µg/mL] | EC50 [3, 18] [µg/mL] | EC50 [4, 19] [µg/mL] | EC50 [5, 20] [µg/mL] | EC50 [6] [µg/mL] | EC50 [7] [µg/mL] | MCC [8] [µg/mL] | EC50 [9, 21] [µg/mL] | other results |
| --- | --- | --- | --- | --- | --- | --- | --- | --- | --- | --- |
| NNc1ncnc2c1ncn2CC(CO)OCP(=O)(O)O (racemic) [6-Hydrazinopurin-9-yl, (RS)--CH2 OH] | 70 (≈ 220 µM) | 70 (≈ 220 µM) | 150 (≈ 471 µM) | 70 (≈ 220 µM) | 70 (≈ 220 µM) | 40 (≈ 126 µM) | 20 (≈ 62.8 µM) | 400 | 70 (≈ 220 µM) | – |
| O=P(O)(O)COC(CO)Cn1cnc2c(NO)ncnc21 (racemic) [6-Hydroxylaminopurin-9-yl, (RS)--CH2 OH] | 20 (≈ 62.7 µM) | 20 (≈ 62.7 µM) | 20 (≈ 62.7 µM) | 20 (≈ 62.7 µM) | 7 (≈ 21.9 µM) | – | 7 (≈ 21.9 µM) | 400 | 20 (≈ 62.7 µM) | – |
| Nc1nc2c(ncn2CC(CO)OCP(=O)(O)O)c(=O)[nH]1 (racemic) [Guanin-9-yl, (RS)--CH2 OH] | 7 (≈ 21.9 µM) | 20 (≈ 62.7 µM) | 20 (≈ 62.7 µM) | 20 (≈ 62.7 µM) | 2 (≈ 6.27 µM) | 10 (≈ 31.3 µM) | 2 (≈ 6.27 µM) | 400 | 20 (≈ 62.7 µM) | – |
| Nc1nc(N)c2ncn(C[C@@H](CO)OCP(=O)(O)O)c2n1 [2-Aminoadenin-9-yl, (S)--CH2 OH] | 7 (≈ 22 µM) | 7 (≈ 22 µM) | 20 (≈ 62.8 µM) | 4 (≈ 12.6 µM) | 2 (≈ 6.28 µM) | – | 0.7 (≈ 2.2 µM) | 200 | 7 (≈ 22 µM) | – |
| Nc1nc(N)c2ncn(CCOCP(=O)(O)O)c2n1 [2-Aminoadenin-9-yl, H] | 2 (≈ 6.94 µM) | 2 (≈ 6.94 µM) | 7 (≈ 24.3 µM) | 2 (≈ 6.94 µM) | 2 (≈ 6.94 µM) | – | 70 (≈ 243 µM) | 200 | 2 (≈ 6.94 µM) | – |
| Nc1ncc2ncn(CCOCP(=O)(O)O)c2n1 [2-Aminopurin-9-yl, H] | 70 (≈ 256 µM) | 20 (≈ 73.2 µM) | 70 (≈ 256 µM) | 20 (≈ 73.2 µM) | 70 (≈ 256 µM) | 150 (≈ 549 µM) | 200 (≈ 732 µM) | 200 | 7 (≈ 25.6 µM) | EC50 [10]: 150 µg/mL (≈ 549 µM) |
| Nc1nccc2c1ncn2C[C@@H](CO)OCP(=O)(O)O [3-Deazaadenin-9-yl, (S)--CH2 OH] | 0.2 (≈ 0.662 µM) | 0.7 (≈ 2.32 µM) | 0.2 (≈ 0.662 µM) | 0.1 (≈ 0.331 µM) | 0.7 (≈ 2.32 µM) | – | – | 40 | 0.2 (≈ 0.662 µM) | – |
| O=c1[nH]c(=O)n([C@H]2C[C@H](O)[C@@H](CO)O2)cc1C=CBr [5-(2-Bromovinyl)-2'-deoxyuridine, 5-(2-bromovinyl)-2' -deoxyuridine, reference compound] | – | – | – | – | – | – | 7 (≈ 21 µM) | 400 | – | EC50 ([1]; Human alphaherpesvirus 1, PRK): 0.02 µg/mL (≈ 0.06 µM); EC50 ([2]; Human alphaherpesvirus 2, PRK): 1 µg/mL (≈ 3 µM); EC50 ([3]; Human alphaherpesvirus 1, PRK): 0.02 µg/mL (≈ 0.06 µM); EC50 ([4]; Human alphaherpesvirus 2, PRK): 4 µg/mL (≈ 12 µM); EC50 ([5]; Human alphaherpesvirus 1, PRK): 0.02 µg/mL (≈ 0.06 µM); EC50 ([9]; Human alphaherpesvirus 2, PRK): 10 µg/mL (≈ 30 µM); sensitivity of strains or mutants devoid of thymidine kinase [11]: usually also resistant |
| Nc1ncnc2c1ncn2C[C@@H](CO)OCP(=O)(O)O [Adenin-9-yl, (S)--CH2 OH, 9-(S)-(2-phosphonylmethoxy-3-hydroxypropyl)adenine, reference compound] | 7 (≈ 23.1 µM) | 7 (≈ 23.1 µM) | 20 (≈ 66 µM) | 20 (≈ 66 µM) | 1 (≈ 3.3 µM) | – | 7 (≈ 23.1 µM) | 100 | 20 (≈ 66 µM) | effect against TK^- mutants of herpes viruses type 1 and 2 [12]: highly effective; effect against vaccinia virus [13]: highly effective; effect where Zovirax, DHPG fail [11]: effective even in those cases where the above-mentioned drugs fail; antiviral activity [14]: very potent antivirals, acting specifically against DNA viruses |
| Nc1ccn(C[C@@H](CO)OCP(=O)(O)O)c(=O)n1 [Cytosin-1-yl, (S)--CH2 OH] | – | – | – | – | – | 7 (≈ 25.1 µM) | 0.2 (≈ 0.716 µM) | 100 | – | EC50 [10]: 10 µg/mL (≈ 35.8 µM); EC50 ([1]; Human alphaherpesvirus 1, PRK): 2 µg/mL (≈ 7.16 µM); EC50 ([2]; Human alphaherpesvirus 2, PRK): 2 µg/mL (≈ 7.16 µM); EC50 ([3]; Human alphaherpesvirus 1, PRK): 7 µg/mL (≈ 25.1 µM); EC50 ([4]; Human alphaherpesvirus 2, PRK): 20 µg/mL (≈ 71.6 µM); EC50 ([5]; Human alphaherpesvirus 1, PRK): 1 µg/mL (≈ 3.58 µM); EC50 ([9]; Human alphaherpesvirus 2, PRK): 20 µg/mL (≈ 71.6 µM) |
| Nc1nc2c(ncn2COC(CO)CO)c(=O)[nH]1 [DHPG, 9-(1,3-dihydroxy-2-propoxymethyl)guanine] | – | – | – | – | – | – | – | – | – | water-solubility [15]: low water-solubility; sensitivity of strains or mutants devoid of thymidine kinase [11]: not sensitive |
| Nc1nc2c(ncn2CCOCP(=O)(O)O)c(=O)[nH]1 [Guanin-9-yl, H] | 2 (≈ 6.92 µM) | 2 (≈ 6.92 µM) | 7 (≈ 24.2 µM) | 4 (≈ 13.8 µM) | 2 (≈ 6.92 µM) | – | 7 (≈ 24.2 µM) | 40 | 7 (≈ 24.2 µM) | – |
| Nc1ncnc2c1ncn2CCOCP(=O)(O)O [PMEA, 9-(2-phosphonylmethoxyethyl)adenine] | – | – | – | – | – | – | – | – | – | effect against TK^- mutants of herpes viruses type 1 and 2 [12]: highly effective; effect against vaccinia virus [13]: highly effective; effect where Zovirax, DHPG fail [11]: effective even in those cases where the above-mentioned drugs fail; antiviral activity [14]: very potent antivirals, acting specifically against DNA viruses |
| Cc1cn(C[C@@H](CO)OCP(=O)(O)O)c(=O)[nH]c1=O [Thymin-1-yl, (S)--CH2 OH] | 150 (≈ 510 µM) | 150 (≈ 510 µM) | 70 (≈ 238 µM) | 20 (≈ 68 µM) | 70 (≈ 238 µM) | 200 (≈ 680 µM) | 300 (≈ 1020 µM) | 400 | 70 (≈ 238 µM) | EC50 [10]: 400 µg/mL (≈ 1360 µM) |
| Nc1nc2c(ncn2COCCO)c(=O)[nH]1 [Zovirax] | – | – | – | – | – | – | – | – | – | sensitivity of strains or mutants devoid of thymidine kinase [11]: not sensitive |
